Reference: the supplement of paper PMC10307832

Legend:
Experiment in all cases: relative viability (nuclei count vs DMSO), 5 days (fraction); higher = more cells survive
[1] = compound: CC1=C(CC(=O)O)c2cc(F)ccc2/C1=C\c1ccc([S+](C)[O-])cc1 [Sulindac] + Cc1cc(Nc2cc(N3CCN(C)CC3)nc(Sc3ccc(NC(=O)C4CC4)cc3)n2)n[nH]1 [Tozasertib] (partner 0.1 µM)
Summary of the method: (§1)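 A single step with final 0.05% Triton X-100, 1% formaldehyde and 1 ug/ml Hoechst fixed the cells and stained nuclei 5 days after treatment. Lung cancer cell lines in 1536-well plates had been treated by pin tool the day after seeding with one drug alone or a fixed anchor-drug dose plus five library-drug doses (not always all listed) in √10 steps, and nuclei were counted on 4× images. Relative viability is the ratio of nuclei in treated wells to nuclei in vehicle wells, taken as the median of duplicate plates.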

[2] = compound: O=c1[nH]cc(F)c(=O)[nH]1 [5-Fluorouracil] + C[C@]1(O)C[C@@H](c2nc(-c3ccc4ccc(-c5ccccc5)nc4c3)c3c(N)nccn32)C1 [Linsitinib] (partner 1 µM)
Summary of the method: as §1

[3] = compound: CN[C@@H]1C[C@H]2O[C@@](C)([C@@H]1OC)n1c3ccccc3c3c4c(c5c6ccccc6n2c5c31)C(=O)NC4 [Staurosporine] + COc1cccc2cc(-c3nc([C@H]4CC[C@H](C(=O)O)CC4)n4ncnc(N)c34)[nH]c12 [OSI-027] (partner 0.5 µM)
Summary of the method: as §1

[4] = compound: O=c1[nH]cc(F)c(=O)[nH]1 [5-Fluorouracil] + Nc1ncn([C@H]2C[C@H](O)[C@@H](CO)O2)c(=O)n1 [Decitabine] (partner 2 µM)
Summary of the method: as §1

Cell Line | relative viability ([1]; first compound 0.08 µM) | relative viability ([1]; first compound 0.253 µM) | relative viability ([1]; first compound 0.8 µM) | relative viability ([1]; first compound 2.53 µM) | relative viability ([1]; first compound 8 µM) | relative viability ([2]; first compound 0.02 µM) | relative viability ([2]; first compound 0.2 µM) | relative viability ([2]; first compound 0.6325 µM) | relative viability ([2]; first compound 2 µM) | relative viability ([3]; first compound 0.005 µM) | relative viability ([3]; first compound 0.01581 µM) | relative viability ([3]; first compound 0.05 µM) | relative viability ([3]; first compound 0.1581 µM) | relative viability ([3]; first compound 0.5 µM) | relative viability ([4]; first compound 0.02 µM) | relative viability ([4]; first compound 0.2 µM) | relative viability ([4]; first compound 0.6325 µM) | relative viability ([4]; first compound 2 µM)
LXF-289 | 0.176 | 0.167 | 0.195 | 0.176 | 0.205 | 1 | 0.67 | 0.389 | 0.308 | 0.215 | 0.0608 | 0.116 | 0.0713 | 0.051 | 0.384 | 0.402 | 0.34 | 0.323
SK-LU-1 | 0.286 | 0.347 | 0.342 | 0.288 | 0.406 | 1.23 | 1.08 | 1.13 | 0.941 | 0.214 | 0.0957 | – | 0.113 | 0.0858 | 0.636 | 0.692 | 0.592 | 0.548
COR-L 105 | 0.291 | 0.349 | 0.348 | 0.373 | 0.391 | 0.976 | 0.862 | 0.937 | 0.575 | 0.279 | 0.173 | 0.269 | 0.266 | 0.183 | 0.763 | 0.677 | 0.719 | 0.438
NCI-H2405 | 0.733 | 0.795 | 0.684 | 0.793 | 0.751 | 0.883 | 0.967 | 0.881 | 0.672 | 0.593 | 0.182 | 0.116 | 0.0974 | 0.0903 | 0.734 | 0.741 | 0.738 | 0.661
PC-3 [JPC-3] | 0.982 | 0.984 | 0.828 | 0.868 | 0.878 | 0.947 | 0.949 | 0.888 | 0.698 | 0.678 | 0.295 | 0.39 | 0.303 | 0.229 | 0.851 | 0.873 | 0.779 | 0.75
SW 1573 | 0.183 | 0.144 | – | 0.172 | 0.163 | 0.734 | 0.917 | 0.782 | 0.483 | 0.161 | 0.11 | 0.085 | 0.0637 | 0.0578 | 0.619 | 0.505 | 0.53 | 0.502
NCI-H1666 | 0.624 | 0.627 | 0.593 | 0.562 | 0.648 | 0.777 | 0.412 | 0.401 | 0.321 | 0.658 | 0.542 | 0.548 | 0.425 | 0.262 | 0.706 | 0.564 | 0.534 | 0.502
NCI-H2087 | 0.237 | 0.284 | – | 0.293 | 0.233 | 0.91 | 0.865 | 0.657 | – | 0.366 | 0.135 | 0.147 | 0.106 | 0.107 | 0.244 | 0.295 | 0.271 | 0.224
NCI-H596 | 0.877 | 0.939 | 0.913 | 0.946 | 1 | 1.02 | 0.834 | 0.689 | 0.567 | 0.798 | 0.285 | 0.439 | 0.179 | 0.135 | 1.15 | 0.999 | 0.902 | 0.706
LCLC-103H | 0.439 | 0.512 | 0.508 | 0.47 | 0.48 | 1.16 | 1.04 | 0.955 | 0.645 | 0.531 | 0.219 | 0.168 | 0.194 | 0.153 | 0.734 | 0.636 | 0.652 | 0.524
HCC-15 | 0.29 | 0.423 | 0.318 | 0.421 | 0.37 | 0.894 | 0.827 | 0.584 | 0.308 | 0.565 | – | 0.296 | 0.113 | 0.0919 | 0.751 | 0.711 | 0.63 | 0.476
H3255 | 0.593 | 0.546 | 0.413 | 0.616 | 0.619 | 0.99 | 1.07 | 0.853 | 0.579 | 0.408 | 0.339 | 0.265 | 0.216 | 0.182 | 0.694 | 0.629 | 0.645 | 0.488
NCI-H1915 | 0.505 | 0.451 | – | 0.423 | 0.416 | 1.06 | 1.1 | 1.03 | 0.803 | 0.448 | 0.115 | 0.193 | 0.0877 | 0.111 | 0.248 | 0.272 | 0.278 | 0.256
NCI-H650 | 0.76 | 0.744 | 0.71 | 0.607 | 0.757 | 0.866 | 0.691 | 0.511 | 0.394 | 0.34 | 0.271 | 0.257 | 0.277 | 0.255 | 0.313 | 0.312 | 0.326 | 0.288
NCI-H2126 | 0.887 | 0.905 | 0.895 | 0.754 | 0.934 | 0.64 | 0.378 | 0.341 | 0.285 | 0.712 | 0.406 | 0.486 | 0.338 | 0.333 | 0.518 | 0.306 | 0.28 | 0.258
NCI-H838 | 0.283 | 0.269 | 0.253 | 0.248 | 0.218 | 1.01 | 1.06 | 0.578 | 0.312 | 0.207 | 0.153 | 0.196 | 0.162 | – | 0.48 | 0.447 | 0.359 | 0.291
EMC-BAC-2 | 0.269 | 0.298 | 0.287 | 0.278 | 0.315 | 0.865 | 0.873 | 0.846 | 0.8 | 0.211 | 0.177 | 0.161 | 0.224 | 0.177 | 1.01 | 1.08 | 0.97 | 1.01
NCI-H1355 | 0.544 | 0.607 | – | 0.502 | 0.57 | 0.639 | 0.681 | 0.398 | 0.314 | 0.332 | 0.15 | 0.192 | 0.157 | 0.143 | 0.332 | 0.332 | 0.26 | 0.245
